Reference: US6569863B1, “Bicyclic heteroamatic compounds useful as LH agonists” (Akzo Nobel NV, priority 1999, dated 2003)

Key:
[1] = target: T1, Leydig cell LH receptor (Mus musculus, UniProt P30730); test: In vitro test for LH bioactivity in mouse Leydig cells (testosterone production); format: cell-based; details: 4 h incubation, testosterone measured by RIA
T1 construct: Leydig cells are isolated from the testes of mature, 9 to 13 weeks old, mice; from tissue; host or cells: primary Leydig cells from mouse testes (strain HSD/Cpb: S E, Harlan)
Text: In male mice, the luteinising hormone (LH) induces testosterone production in testicular Leydig cells. […] The in vitro Leydig cell assay (van Damme et al, 1974; modified by Mannaerts et al, 1987) is used to determine the LH bioactivity of compounds that bind to the Leydig cell LH receptor which in turn causes testosterone production.
For this assay, Leydig cells are isolated from the testes of mature, 9 to 13 weeks old, mice (strain: HSD/Cpb: S E, Harlan, The Netherlands). Therefore, mice are killed and the testes are quickly removed and decapsulated. Each testis is transferred to a separate well of a tissue culture plate containing 0.75 ml culture medium per well. The contents of each well are passed through a 30 cm glass tube (inside diameter 2.5 mm, narrowed to 1.2 mm at 4 places in the middle). The suspension obtained is filtered through a 30 μm nylon mesh and the filtrate is pre-incubated in a 50 ml plastic tube for 30 min. at 37° C. in an incubator in a water-saturated atmosphere of 95% air/5% CO2. Following preincubation the tube is centrifuged at 1600 N/kg for 5 min and the supernatant is decanted. The resulting pellet is resuspended in culture medium (0.5 mg original testis/ml) and the suspension is kept homogeneous by stirring it very slowly on a magnetic stirrer.
This Leydig cell suspension (100 μl) is added to the wells of a micotiter plate containing 50 μl reference compound, test compound or vehicle (culture medium) per well. As a to reference, LH or hCG in-house standards are used which are calibrated against International Reference preparations of human LH or hCG provided by the National Institute for Biological Standards and Controls (NIBSC, London, UK). Test and reference compounds are dissolved, diluted and assayed in the same culture medium. The plates containing reference and test compounds are incubated for 4 h at 37° C. in an incubator in a water-saturated atmosphere of 95% air/5% CO2. Following incubation, plates are sealed and stored at −20° C. until testosterone measurement.
Prior to testosterone measurement, the contents of the microtiter plates are thawed at room temperature and the plates are centriged at 150 N/kg for 5 min. An aliquot of 30 μl supernatant of each well is diluted with culture medium (60×) to obtain a suitable dilution for testosterone measurement. Aliquots (12.5 μl) of each diluted test sample are then assayed using a direct testosterone RIA-kit.

[2] = test system: immature female mice; test: In vivo ovulation induction assay for LH bioactivity in immature female mice; set-up: species or system mouse; details: 50 mg/kg p.o., FSH-primed immature female mice, 24 h after administration
Text: In female immature mice which are stimulated with follicle stimulating hormone (FSH), ovulation can be induced by luteininzing hormone (LH) or by human chorionic gonadotrophin (hCG) which binds to the same LH-receptor on the Graafian follicles. Binding to the LH-receptor initiates a biochemical cascade, which eventually results in follicular rupture and extrusion of a mature oocyte. To measure the in vivo activity of LH-agonistic compounds, inunature 20 days old mice (B6D2F1 stain, Broekman Institute, the Netherlands) are primed with unary FSH (Humegon; 12.5 IU/l, 0.1 ml s.c.) to initiate folliculogenesis. Forty-eight hours after FSH treatment test compound, reference compound or vehicle (10% cremophor solution) are administered to the animals. Test compounds (50 mg/kg in 0.1 ml) and vehicle (0.1 ml) are administered p.o., reference compounds (500 IU/kg hCG in 0.1 ml) are injected s.c. As a reference, hCG in-house standards are used which are calibrated against International Reference preparations of human hCG provided by the National Institute for Biological Standards and Controls (NMSC, London, UK). Twenty-four hours after administration of test compound, reference compound or vehicle, animals are killed by cervical dislocation. The oviducts are dissected and collected in 0.9% NaCl. Next, the oviducts are placed between two glass plates and examined for the presence or absence of ovulated ova under a microscope. The number of ovulated ova present in the oviducts is indicative for in vivo LH-bioactivity.

T1 sequence (P30730 27-700): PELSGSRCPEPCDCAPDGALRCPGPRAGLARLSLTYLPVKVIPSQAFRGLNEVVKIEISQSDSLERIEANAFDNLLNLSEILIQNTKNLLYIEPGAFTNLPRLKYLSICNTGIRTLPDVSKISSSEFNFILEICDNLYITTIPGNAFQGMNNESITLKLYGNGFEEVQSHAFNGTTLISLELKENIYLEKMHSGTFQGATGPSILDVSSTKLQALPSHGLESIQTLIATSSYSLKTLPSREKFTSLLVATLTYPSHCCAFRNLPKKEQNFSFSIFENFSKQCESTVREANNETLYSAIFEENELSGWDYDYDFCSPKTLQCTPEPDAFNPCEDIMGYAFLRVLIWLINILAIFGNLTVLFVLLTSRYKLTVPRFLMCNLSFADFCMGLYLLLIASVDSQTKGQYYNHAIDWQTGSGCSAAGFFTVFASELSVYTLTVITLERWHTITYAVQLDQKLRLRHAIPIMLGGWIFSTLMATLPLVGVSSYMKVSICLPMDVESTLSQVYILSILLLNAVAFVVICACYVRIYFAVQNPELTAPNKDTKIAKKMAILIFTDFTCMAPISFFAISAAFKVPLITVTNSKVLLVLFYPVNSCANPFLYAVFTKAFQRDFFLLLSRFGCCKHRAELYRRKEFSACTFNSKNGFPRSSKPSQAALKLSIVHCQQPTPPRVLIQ

| Compound | EC50 [1] | Mouse in vivo ovulation induction (% ovulating animals) [2] |
| --- | --- | --- |
| CSc1nc(-c2cccc(NC(=O)c3ccccc3)c2)c2c(N)c(C(=O)NC(C)(C)C)sc2n1 [Example 111, tert-Butyl 5-Amino-2-methylthio-4-(N-benzoyl-3-aminophenyl)-thieno[2,3-d]pyrimidine-6-carboxamide] | 280 nM | 40% |
| COc1cccc(-c2nc(SC)nc3sc(C(=O)N(C)C(C)C)c(N)c23)c1 [Example 113, N-Methyl-N-isopropyl 5-Amino-2-methylthio-4-(3-methoxyphenyl)-thieno[2,3-d]pyrimidine-6-carboxamide] | 870 nM | 50% |
| COc1cccc(-c2nc(-c3cccs3)nc3sc(C(=O)N4CCOCC4)c(N)c23)c1 [Example 115, 5-Amino-2-(2-thienyl)-4-(3-methoxyphenyl)-6-(N-morpholinocarbonyl)thieno[2,3-d]pyrimidine] | 3100 nM | 20% |
| CSc1nc(-c2cccc(NC(=O)CNC(C)(C)C)c2)c2c(N)c(C(=O)NC(C)(C)C)sc2n1 [Example 116, tert-Butyl 5-Amino-2-methylthio-4-(N-(2-(tert-butylamino)acetyl)-3-aminophenyl)-thieno[2,3-d]pyrimidine-6-carboxamide] | 320 nM | 13% |

Continued, in another order:

| EC50 [1] | Compound | Mouse in vivo ovulation induction (% ovulating animals) [2] |
| --- | --- | --- |
| 430 nM | COc1cccc(-c2nc(SC)nc3sc(C(=O)NC(C)(C)C)c(N)c23)c1 [Example 112, tert-Butyl 5-Amino-2-methylthio-4-(3-methoxyphenyl)-thieno[2,3-d]pyrimidine-6-carboxamide] | 40% |
| 1900 nM | CCOc1nc(-c2cccc(OC)c2)c2c(N)c(C(=O)NC(C)(C)C)sc2n1 [Example 114, tert-Butyl 5-Amino-2-ethoxy-4-(3-methoxyphenyl)-thieno[2,3-d]pyrimidine-6-carboxamide] | 30% |
| 1800 nM | CSc1nc(-c2cccc(OCCCc3cccnc3)c2)c2c(N)c(C(=O)NC(C)(C)C)sc2n1 [Example 117, tert-Butyl 5-Amino-2-methylthio-4-(3-(3-(3-pyridyl)-propoxy)phenyl)-thieno[2,3-d]pyrimidine-6-carboxamide] | 40% |
